{
  "source": "paper PMC6095626",
  "about": "“Screening of the Pathogen Box for inhibitors with dual efficacy against Giardia lamblia and Cryptosporidium parvum” (PLoS Neglected Tropical Diseases, 2018)",
  "key": {"[1]": {"test_system": "C. parvum (UGA1 Nluc expressing strain in HCT-8 cells)", "assay": "microbe, parasite or virus in culture", "format": "cell-based, Cryptosporidium parvum", "details": "initial Pathogen Box screen, single concentration 10 µM, inhibition compared to DMSO wells", "summary_of_the_method": "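Parasite growth quantified by NanoLuc luminescence from lysed infected HCT-8 cells, with EC50 fitted from dose curves. Compounds, single-dose 10 μM or serially diluted, were added to confluent 48 h monolayers before infection with bleached UGA1 Nluc oocysts.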"}, "[2]": {"test_system": "G. lamblia trophozoites (luciferase expressing, WBC6)", "assay": "microbe, parasite or virus in culture", "format": "cell-based, Giardia lamblia", "details": "initial Pathogen Box screen, single concentration 16 µM, inhibition compared to DMSO wells", "summary_of_the_method": "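Incubation ran 24 h at 37 °C under anaerobic conditions, with compound added in equal volume to trophozoites (WBC6, luciferase-expressing, 250,000 cells/mL). Bioluminescence was the read-out, cross-checked by MOXI Z counts on a duplicate plate; metronidazole served as control (1:2 dilutions from 40 μM).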"}},
  "data": [
    {"compound": "N#CCN(CCCCN1CCN(c2ccc(F)cc2)CC1)C(=O)OCc1ccccc1", "note": "[MMV675997]", "values": [
      {"measurement": "Crypto (10 uM) Mean % inhibition", "setting": "[1]", "value": 56, "unit": "%"},
      {"measurement": "Giardia (16 uM) Mean % inhibition", "setting": "[2]", "value": 29, "unit": "%"}
    ]},
    {"compound": "COc1ccc(C(=N)N)cc1-c1cn(-c2ccc(C(=N)N)cc2)nn1", "note": "[MMV675998]", "values": [
      {"measurement": "Crypto (10 uM) Mean % inhibition", "setting": "[1]", "value": "X* (Mean or standard deviation are negative but not significantly different from the control to be a growth promoter)"},
      {"measurement": "Giardia (16 uM) Mean % inhibition", "setting": "[2]", "value": 30, "unit": "%"}
    ]},
    {"compound": "O=C(Nc1c(O)cccc1-c1nc2c(C(=O)O)cccc2o1)c1cc(-c2ccccc2)on1", "note": "[MMV676008]", "values": [
      {"measurement": "Crypto (10 uM) Mean % inhibition", "setting": "[1]", "value": "X* (Mean or standard deviation are negative but not significantly different from the control to be a growth promoter)"},
      {"measurement": "Giardia (16 uM) Mean % inhibition", "setting": "[2]", "value": 41, "unit": "%"}
    ]},
    {"compound": "Clc1ccc(Cl)c(CO[C@H]2CCCC[C@@H]2n2ccnc2)c1", "note": "[MMV676048]", "values": [
      {"measurement": "Crypto (10 uM) Mean % inhibition", "setting": "[1]", "value": 49, "unit": "%"},
      {"measurement": "Giardia (16 uM) Mean % inhibition", "setting": "[2]", "value": 37, "unit": "%"}
    ]},
    {"compound": "CS(=O)(=O)N1CCC(Cn2nc(Cc3cccc4ccccc34)c3c(N)ncnc32)CC1", "note": "[MMV676050]", "values": [
      {"measurement": "Crypto (10 uM) Mean % inhibition", "setting": "[1]", "value": 79, "unit": "%"},
      {"measurement": "Giardia (16 uM) Mean % inhibition", "setting": "[2]", "value": 18, "unit": "%"}
    ]},
    {"compound": "COc1cc(NC(=O)Cc2nn(C)c(=O)c3ccccc23)ccc1Cl", "note": "[MMV676053]", "values": [
      {"measurement": "Crypto (10 uM) Mean % inhibition", "setting": "[1]", "value": 84, "unit": "%"},
      {"measurement": "Giardia (16 uM) Mean % inhibition", "setting": "[2]", "value": "X* (Mean or standard deviation are negative but not significantly different from the control to be a growth promoter)"}
    ]},
    {"compound": "CC(C)(C)OC(=O)N1CCN(c2cc(-c3ccc(Oc4ccccc4)cc3)n[nH]2)CC1", "note": "[MMV676057]", "values": [
      {"measurement": "Crypto (10 uM) Mean % inhibition", "setting": "[1]", "value": "X* (Mean or standard deviation are negative but not significantly different from the control to be a growth promoter)"},
      {"measurement": "Giardia (16 uM) Mean % inhibition", "setting": "[2]", "value": 52, "unit": "%"}
    ]},
    {"compound": "CCCCc1ccc(NC(=O)Nc2ccc(O[C@H]3CCCC[C@@H]3N(C)c3ccccc3)c(F)c2)cc1", "note": "[MMV676063]", "values": [
      {"measurement": "Crypto (10 uM) Mean % inhibition", "setting": "[1]", "value": 82, "unit": "%"},
      {"measurement": "Giardia (16 uM) Mean % inhibition", "setting": "[2]", "value": 29, "unit": "%"}
    ]},
    {"compound": "CC(=O)N(CCN(C(=O)c1ccc(F)cc1)c1ccccc1)c1ccccc1", "note": "[MMV676064]", "values": [
      {"measurement": "Crypto (10 uM) Mean % inhibition", "setting": "[1]", "value": 28, "unit": "%"},
      {"measurement": "Giardia (16 uM) Mean % inhibition", "setting": "[2]", "value": 28, "unit": "%"}
    ]},
    {"compound": "Clc1cccc(CO[C@H]2CCc3ccccc3[C@@H]2n2ccnn2)c1", "note": "[MMV676159]", "values": [
      {"measurement": "Crypto (10 uM) Mean % inhibition", "setting": "[1]", "value": "X* (Mean or standard deviation are negative but not significantly different from the control to be a growth promoter)"},
      {"measurement": "Giardia (16 uM) Mean % inhibition", "setting": "[2]", "value": 30, "unit": "%"}
    ]},
    {"compound": "c1ccc(Oc2ccc(-c3cc(CN4CCOCC4)[nH]n3)cc2)cc1", "note": "[MMV676161]", "values": [
      {"measurement": "Crypto (10 uM) Mean % inhibition", "setting": "[1]", "value": "X* (Mean or standard deviation are negative but not significantly different from the control to be a growth promoter)"},
      {"measurement": "Giardia (16 uM) Mean % inhibition", "setting": "[2]", "value": 33, "unit": "%"}
    ]},
    {"compound": "O=C(Nc1ccccc1-c1nc2c(C(=O)O)cccc2o1)c1ccccc1", "note": "[MMV676162]", "values": [
      {"measurement": "Crypto (10 uM) Mean % inhibition", "setting": "[1]", "value": 48, "unit": "%"},
      {"measurement": "Giardia (16 uM) Mean % inhibition", "setting": "[2]", "value": 1.55, "unit": "%"}
    ]},
    {"compound": "Nc1ncnc2c1c(Cc1cccc3ccccc13)nn2CC1CCNCC1", "note": "[MMV676182]", "values": [
      {"measurement": "Crypto (10 uM) Mean % inhibition", "setting": "[1]", "value": 59, "unit": "%"},
      {"measurement": "Giardia (16 uM) Mean % inhibition", "setting": "[2]", "value": 0.413, "unit": "%"}
    ]},
    {"compound": "COC(=O)c1cccc2oc(-c3cccc(OC)c3NC(=O)c3cc(-c4ccccc4)on3)nc12", "note": "[MMV676186]", "values": [
      {"measurement": "Crypto (10 uM) Mean % inhibition", "setting": "[1]", "value": 28, "unit": "%"},
      {"measurement": "Giardia (16 uM) Mean % inhibition", "setting": "[2]", "value": 19, "unit": "%"}
    ]},
    {"compound": "O=C(c1ccc(F)cc1)N(CCNc1ccccc1)c1ccccc1", "note": "[MMV676204]", "values": [
      {"measurement": "Crypto (10 uM) Mean % inhibition", "setting": "[1]", "value": 55, "unit": "%"},
      {"measurement": "Giardia (16 uM) Mean % inhibition", "setting": "[2]", "value": 28, "unit": "%"}
    ]},
    {"compound": "CN1CCN(c2nccc3nc(-c4ccc(F)c(F)c4)[nH]c23)CC1", "note": "[MMV676260]", "values": [
      {"measurement": "Crypto (10 uM) Mean % inhibition", "setting": "[1]", "value": 33, "unit": "%"},
      {"measurement": "Giardia (16 uM) Mean % inhibition", "setting": "[2]", "value": 29, "unit": "%"}
    ]},
    {"compound": "C[C@H](C(N)=O)N1CCCC[C@H]1c1ccc(OCc2cccc(F)c2)cc1", "note": "[MMV676269]", "values": [
      {"measurement": "Crypto (10 uM) Mean % inhibition", "setting": "[1]", "value": 7, "unit": "%"},
      {"measurement": "Giardia (16 uM) Mean % inhibition", "setting": "[2]", "value": 69, "unit": "%"}
    ]},
    {"compound": "C[C@H](C(N)=O)N1CCCC[C@@H]1c1ccc(OCc2cccc(F)c2)cc1", "note": "[MMV676270]", "values": [
      {"measurement": "Crypto (10 uM) Mean % inhibition", "setting": "[1]", "value": 6.67, "unit": "%"},
      {"measurement": "Giardia (16 uM) Mean % inhibition", "setting": "[2]", "value": 20, "unit": "%"}
    ]},
    {"compound": "Cc1c[nH]c(CCNC(=O)c2cc(-c3ccc(Cl)cc3)cs2)n1", "note": "[MMV676350]", "values": [
      {"measurement": "Crypto (10 uM) Mean % inhibition", "setting": "[1]", "value": "X* (Mean or standard deviation are negative but not significantly different from the control to be a growth promoter)"},
      {"measurement": "Giardia (16 uM) Mean % inhibition", "setting": "[2]", "value": 17, "unit": "%"}
    ]},
    {"compound": "Nc1ncc(Br)cc1-c1nc2cc(Cl)cnc2[nH]1", "note": "[MMV676358]", "values": [
      {"measurement": "Crypto (10 uM) Mean % inhibition", "setting": "[1]", "value": "X* (Mean or standard deviation are negative but not significantly different from the control to be a growth promoter)"},
      {"measurement": "Giardia (16 uM) Mean % inhibition", "setting": "[2]", "value": 90, "unit": "%"}
    ]},
    {"compound": "Brc1c(-c2ccc3c(c2)OCO3)nc2ncccn12", "note": "[MMV676377]", "values": [
      {"measurement": "Crypto (10 uM) Mean % inhibition", "setting": "[1]", "value": "X* (Mean or standard deviation are negative but not significantly different from the control to be a growth promoter)"},
      {"measurement": "Giardia (16 uM) Mean % inhibition", "setting": "[2]", "value": 40, "unit": "%"}
    ]},
    {"compound": "COc1cccc(OCC(=O)c2ccc(Br)cc2)c1", "note": "[MMV676379]", "values": [
      {"measurement": "Crypto (10 uM) Mean % inhibition", "setting": "[1]", "value": 55, "unit": "%"},
      {"measurement": "Giardia (16 uM) Mean % inhibition", "setting": "[2]", "value": 80, "unit": "%"}
    ]},
    {"compound": "CC(=O)Nc1ccc(NC(=O)c2cc(-c3cc(Cl)ccc3O)n[nH]2)cc1", "note": "[MMV676380]", "values": [
      {"measurement": "Crypto (10 uM) Mean % inhibition", "setting": "[1]", "value": 34, "unit": "%"},
      {"measurement": "Giardia (16 uM) Mean % inhibition", "setting": "[2]", "value": "X* (Mean or standard deviation are negative but not significantly different from the control to be a growth promoter)"}
    ]}
  ]
}
